Measurements as given in US10925880B2, “Combination of PI3K-inhibitors” (BAYER PHARMA AKTIENGESELLSCHAFT, priority 2016, dated 2021).
Structures can show the parent of a compound that is named as a salt. One block for each compound: values may come before it.

What was measured:
Assay type in all cases: cell-based
[1] = system: ESKOL; test: 72-hour cell proliferation assay (Cell Titer Glo); settings: ESKOL (MZL), single agent; for IC50: 72 h
Protocol: (§1) Combinations of Copanlisib and ABT-199 or Palbociclib in a Panel Cell Lines Assessed by the Combination Index (CI) of a 72-Hour Cell Proliferation Assay The effect of combinations of the present invention was evaluated using combination index isobologram analysis for in vitro assessment. The efficacy parameter was the effect in a 72-hour cell proliferation assay. Briefly, 3000 cells were plated in 384-well plates with appropriate growth medium. […] Cells were treated for 72 hours followed by assessment of cell viability by means of Cell Titer Glo assay (Promega). Experiments were conducted in duplicates. The mapping IC50 values were calculated. The corresponding component concentrations of copanlisib and ABT-199 or Palbociclib were calculated and used for plotting isobolograms. Effects were analyzed as described by Chou (Pharmacology Reviews 2006) and the combination index was calculated using the formula: Combination Index=[Ax]/A′+[Bx]/B′ [Ax] and [Bx] refer to component A and component B. A′ and B′ refer to the IC50 values of A and B, respectively, as a single agent. […] Cis of 0.9-1.1 were defined as additive effect. Cis greater than 1.1 were defined as antagonistic effects.

[2] = system: MAVER-1; test: 72-hour cell proliferation assay (Cell Titer Glo); settings: MAVER-1 (MCL), single agent; for IC50: Homo sapiens, Maver1, 72 h
Protocol: as §1

[3] = system: SSK41; test: 72-hour cell proliferation assay (Cell Titer Glo); settings: SSK41 (SMZL), single agent; for IC50: 72 h
Protocol: as §1

[4] = system: KARPAS-1718; test: 72-hour cell proliferation assay (Cell Titer Glo); settings: KARPAS-1718 (SMZL), single agent; for IC50: 72 h
Protocol: as §1

[5] = system: Z-138; test: 72-hour cell proliferation assay (Cell Titer Glo); settings: Z-138 (MCL), single agent; for IC50: Homo sapiens, 72 h
Protocol: as §1

[6] = system: SP-49; test: 72-hour cell proliferation assay (Cell Titer Glo); settings: SP-49 (MCL), single agent; for IC50: 72 h
Protocol: as §1

[7] = system: REC-1; test: 72-hour cell proliferation assay (Cell Titer Glo); settings: REC-1 (MCL), single agent; for IC50: Homo sapiens, Rec1, 72 h
Protocol: as §1

[8] = system: JVM-2; test: 72-hour cell proliferation assay (Cell Titer Glo); settings: JVM-2 (MCL), single agent; for IC50: Homo sapiens, 72 h
Protocol: as §1

[9] = system: MINO; test: 72-hour cell proliferation assay (Cell Titer Glo); settings: MINO (MCL), single agent; for IC50: Homo sapiens, 72 h
Protocol: as §1

[10] = system: VL51; test: 72-hour cell proliferation assay (Cell Titer Glo); settings: VL51 (SMZL), single agent; for IC50: Homo sapiens, 72 h
Protocol: as §1

[11] = system: JEKO-1; test: 72-hour cell proliferation assay (Cell Titer Glo); settings: JEKO-1 (MCL), single agent; for IC50: Homo sapiens, 72 h
Protocol: as §1

[12] = system: HC-1; test: 72-hour cell proliferation assay (Cell Titer Glo); settings: HC-1 (MZL), single agent; for IC50: 72 h
Protocol: as §1

[13] = system: GRANTA-519; test: 72-hour cell proliferation assay (Cell Titer Glo); settings: GRANTA-519 (MCL), single agent; for IC50: Homo sapiens, 72 h
Protocol: as §1

[14] = system: HAIR-M; test: 72-hour cell proliferation assay (Cell Titer Glo); settings: HAIR-M (MZL), single agent; for IC50: 72 h
Protocol: as §1

[15] = system: SP-53; test: 72-hour cell proliferation assay (Cell Titer Glo); settings: SP-53 (MCL), single agent; for IC50: 72 h
Protocol: as §1

[16] = system: UPN1; test: 72-hour cell proliferation assay (Cell Titer Glo); settings: single agent; for IC50: UPN1 (MCL), 72 h
Protocol: as §1

[17] = system: Mantle Cell Lymphoma (MCL), Marginal zone lymphoma (MZL) and Splenic marginal zone lymphoma (SMZL) cell lines; test: 72-hour cell proliferation assay, summary over the cell line panel; settings: ten MCL, three MZL and three SMZL cell lines, range over panel
Protocol: as §1

IC50 [4]: 0.00372 µM
Structure (SMILES): CC1(C)CCC(CN2CCN(c3ccc(C(=O)NS(=O)(=O)c4ccc(NCC5CCOCC5)c([N+](=O)[O-])c4)c(Oc4cnc5[nH]ccc5c4)c3)CC2)=C(c2ccc(Cl)cc2)C1 [venetoclax, reference compound]
IC50 [1]: ≥ 10 µM
IC50 [2]: 0.00186 µM
IC50 [3]: 6.23 µM
IC50 [5]: 1 µM
IC50 [6]: 1.72 µM
IC50 [7]: 0.0203 µM
IC50 [8]: 5.74 µM
IC50 [9]: 0.00128 µM
IC50 [10]: 1.49 µM
IC50 [11]: 3.43 µM
IC50 [12]: ≥ 10 µM
IC50 [13]: 0.0177 µM
IC50 [14]: 0.256 µM
IC50 [15]: ≥ 10 µM
IC50 [16]: ≥ 10 µM

IC50 [4]: 0.0151 µM
Structure (SMILES): COc1c(OCCCN2CCOCC2)ccc2c1N=C(NC(=O)c1cnc(N)nc1)N1CCN=C21 [copanlisib, 2-amino-N—[7-methoxy-8-(3-morpholin-4-ylpropoxy)-2,3-dihydroimidazo[1,2-c]quinazolin-5-yl]pyrimidine-5-carboxamide dihydrochloride]
monotherapy anti-proliferative activity [17]: very strong to moderate
monotherapy anti-proliferative activity [1]: strong
IC50 [1]: 0.0988 µM
IC50 [2]: 0.104 µM
monotherapy anti-proliferative activity [2]: moderate
monotherapy anti-proliferative activity [3]: strong
IC50 [3]: 0.0508 µM
monotherapy anti-proliferative activity [4]: strong
IC50 [5]: 0.0205 µM
monotherapy anti-proliferative activity [5]: strong
monotherapy anti-proliferative activity [6]: very strong
IC50 [6]: 0.0025 µM
IC50 [7]: 0.006 µM
monotherapy anti-proliferative activity [7]: very strong
IC50 [8]: 0.0217 µM
monotherapy anti-proliferative activity [8]: strong
IC50 [9]: 0.102 µM
monotherapy anti-proliferative activity [9]: moderate
IC50 [10]: 0.0207 µM
monotherapy anti-proliferative activity [10]: strong
IC50 [11]: 0.0409 µM
monotherapy anti-proliferative activity [11]: strong
monotherapy anti-proliferative activity [12]: moderate
IC50 [12]: 0.183 µM
monotherapy anti-proliferative activity [13]: moderate
IC50 [13]: 0.111 µM
monotherapy anti-proliferative activity [14]: very strong
IC50 [14]: 0.00539 µM
monotherapy anti-proliferative activity [15]: very strong
IC50 [15]: 0.00143 µM
IC50 [16]: 0.015 µM
monotherapy anti-proliferative activity ([16]; UPN-1 (MCL)): strong

IC50 [4]: 7.65 µM
Structure (SMILES): CC(=O)c1c(C)c2cnc(Nc3ccc(N4CCNCC4)cn3)nc2n(C2CCCC2)c1=O [palbociclib, reference compound]
IC50 [1]: 2.07 µM
IC50 [2]: 0.47 µM
IC50 [3]: 2.31 µM
IC50 [5]: 1.29 µM
IC50 [6]: 0.205 µM
IC50 [7]: 4.71 µM
IC50 [8]: 5.66 µM
IC50 [9]: 0.575 µM
IC50 [10]: ≥ 10 µM
IC50 [11]: 0.404 µM
IC50 [12]: 2.3 µM
IC50 [13]: ≥ 10 µM
IC50 [14]: 1.56 µM
IC50 [15]: 0.0959 µM
IC50 [16]: 3.4 µM
